Experimental data taken from patent US20040208866A1, “Methods of regulating body weight” (priority 2002, published 2004).

What was measured:
[1] = test system: antral portion of the stomach; assay: Gastrointestinal contractility: distance between transducing crystals on the antral stomach; type: in vivo, Sprague-Dawley rats
Text: Two male Sprague-Dawley rats, approximately 12 weeks old (Harlan, Indianapolis, Ind.) were anesthetized with urethane and their stomachs were exposed through a small abdominal incision. Two 2.4 mm transducing crystals (Sonometrics, Ontario, Canada) were placed on the antral portion of the stomach such that circular contractions could be monitored as a change in the distance between the two crystals. The crystals were attached with VETBOND TISSUE ADHESIVE (3M, St. Paul, Minn.). […] The amplitude of the NE-induced decrease was approximately 50% of the acetylcholine-induced increase in distance. Both responses were transient. A negative control of […] of phosphate buffer solution (PBS) applied topically between the crystals had no effect. A 14 amino acid zsig33 peptide (zsig33-1, as shown in Example 4) was dissolved in PBS and […] was applied topically for a final concentration of 1 μg, 10 μg or 100 μg.

ob/ob mice [2] = assay: Glucose absorption after oral glucose challenge; type: in vivo; conditions: 100 μg by oral gavage 30 minutes prior to oral glucose challenge, female ob/ob mice
Protocol: Eight female ob/ob mice, approximately 6 weeks old (Jackson Labs, Bar Harbor, Me.) were adapted to a 4 hour daily feeding schedule for two weeks. After two weeks on the feeding schedule, the mice were given 100 μg of a zsig33 peptide (zsig33-1, as shown in Example 4) in 100 μl sterile 0.1% BSA by oral gavage, immediately after their eating period (post-prandially). Thirty minutes later, the mice were challenged orally with a 0.5 ml volume of 25% glucose. Retroorbital bleeds were done to determine serum glucose levels. Blood was drawn prior to zsig33 dosing, prior to oral glucose challenge, and at 1, 2, 4, and 20 hours following the glucose challenge.

ob/ob mice [3] = assay: Body weight, food intake and glucose clearance, 14-day oral dosing; type: in vivo; conditions: 1 μg/mouse orally twice daily for fourteen days, versus scrambled peptide
Protocol: Sixteen female ob/ob mice, 8 weeks old, (Jackson Labs, Bar Harbor, Me.) were adapted to a special 4 hour daily feeding schedule for two weeks. The were fed ad libitum from 7:30-11:30 am daily. After two weeks on the feeding schedule, the mice were divided into two groups of 8. One group was given 1.0 μg/mouse of zsig33-1 (14 amino acid peptide) and the other vehicle (a 14 amino acid scrambled sequence peptide) in […] sterile 0.1% BSQA by oral gavage just prior to receiving food, and at the end of the 4 hour feeding period. The mice were […] twice daily for fourteen days, during which time food intake and body weight was measured daily. On day 14, immediately after the second oral gavage of the zsig33-1 peptide, the mice were challenged orally with an 0.5 ml volume of 25% glucose. Retro-orbital bleeds were done to determine serum glucose levels immediately prior to administration of the zsig33-1 peptide or vehicle ([…].), and also at 0, 1, 2, and 4 hours following the glucose challenge.

Balb C male mice = assay: Binding studies of FITC-labelled zsig33 peptides in situ after tail vein injection; type: in vivo; conditions: FITC-labelled peptide, 0.5 mg per mouse by tail vein, 15 minutes circulation, fluorescent microscopy at 495 nm
Protocol: Ten week old Balb C male mice were anesthetized via intramuscular injection and tested for binding of zsig33 peptides in vivo.
Two peptides were tested: the first peptide, zsig33-1, (See Example 4) consisted of residues 24 to 37 of SEQ ID NO:2, and the second peptide, zsig33-2, consisted of residues 24 to 41 of SEQ ID NO:2. A single glycine was used as a negative control. Additionally, a “scrambled” negative control consisting of residues the first peptide which had been rearranged (SEQ ID NO:15) was also tested. The peptides and controls were coupled to fluorescein isothiocyantate (FITC, Molecular Probes, Eugene, Oreg.) in the following manner: The peptides, glycine control and FITC were dissolved in 0.1 M sodium bicarbonate at pH 9.0 to a concentration of 2.0 mg/ml for the peptides and glycine control and 5 mg/ml for FITC, avoiding exposure of the FITC to strong light. […] The buffer was changed daily and unbound FITC in the post-dialyzed buffer was measured by HPLC. […] Peptide- or glycine-bound FITC was determined by measuring the absorbance of the dialyzed FITC-bound material at 498 nm and dividing by the extinction coefficient of fluorescein, […]. The molar ratio of fluorescein to peptide (mole FITC/mole peptide) was then determined. […]

[4] = test system: stomachs of fasted male Sprague-Dawley rats; assay: Gastric emptying: transit of phenol red through the stomach; type: in vivo; conditions: 1 μg applied topically to the stomach 5 minutes after gavage, read 30 minutes after the gavage
Protocol: The effect of topically applied zsig33 peptide (amino acid 24 to 37 of SEQ ID NO: 2) on the transit of phenol red through the stomachs of fasted male Sprague-Dawley rats (Harlan, Indianapolis, Ind.) was evaluated. The rats (6 animals, 8 weeks old) were fasted 24 hrs prior to being anesthetized with urethane (0.5 ml/100 grams of 25% solution). After anesthetizing, the animals were orally gavaged with 1 ml of Phenol Red solution (50 μg/ml in 2% methylcellulose solution).
The stomach of each animal was exposed through a small abdominal incision and either 1 μg zsig33 peptide or a 14 amino acid control of a scrambled sequence peptide was applied topically to the stomach five minutes following the gavage. The amount of Phenol Red remaining in the stomach was determined by measuring optical density of the extracted stomach contents 30 minutes after the gavage.

Compound	amplitude of the NE-induced decrease relative to the acetylcholine-induced increase in distance ([1]; 10 ml of 1 mM applied topically)	change in distance between the two crystals ([1]; 10 ml of 1 mM applied topically to the stomach, anesthetized rats)	post-prandial glucose absorption (serum glucose) (ob/ob mice [2])	daily body weight (ob/ob mice [3])	daily food intake (ob/ob mice [3])	fluorescence in duodenum, jejunum and kidney compared to the glycine and scrambled controls (Balb C male mice)	reduction of the amount of Phenol Red remaining in the stomach compared to a scrambled peptide [4]	change in crystal distance ([1]; 1 μg peptide in PBS applied topically)	rate and amplitude of the contractions ([1]; 10 μg and 100 μg applied topically, compared with 1 μg)
NC[C@H](O)c1ccc(O)c(O)c1 [norepinephrine, reference compound]	approximately 50%	reduction in the distance between the two crystals	–	–	–	–	–	–	–
zsig33-1: 14 amino acid peptide corresponding to residue 24 (Gly) to residue 37 (Gln) of SEQ ID NO:2 (GSSFLSPEHQRVQQ; listed as Homo sapiens)	–	–	enhanced post-prandial glucose absorption	no affect	no affect	increased fluorescence in duodenum, jejunum and in the collecting ducts and convoluted tubules of the kidney	approximately 25%	sustained, rhythmic increase and decrease in crystal distance	enhanced responses in both rate and amplitude
zsig33-2: peptide consisting of residues 24 to 41 of SEQ ID NO:2 (GSSFLSPEHQRVQQRKES; listed as Homo sapiens)	–	–	–	–	–	increased fluorescence in duodenum, jejunum and in the collecting ducts and convoluted tubules of the kidney	–	–	–
